Columns and labels:
[1] = tested on: neutrophils (arachidonic acid uptake); test: 14C-arachidonic acid uptake in arachidonic acid-stimulated neutrophils; format: cell-based, human
Procedure: Neutrophils (10^6 /mL) were labeled with ^14 C-arachidonic acid (0.01 μCi/sample) together with either vehicle, aspirin (10 μg/mL), indomethacin (1 μg/mL) or sodium salicylate (10 μg/mL) for 1 hour. After the incubation period, lipid body formation was elicited by arachidonic acid (15 μM). The cells were washed 3 times in Ca^++ /Mg^++ free HBSS and analysis of incorporated ^14 C-arachidonic acid in the cell pellet was performed by liquid scintillation counting.
^1 The cells were pretreated with ^14 Carachidonic acid (0.01
μCi/sample) plus vehicle, aspirin (10 μg/ml) , sodium salicylate (1
μg/ml) or indomethacin (1 μg/ml) 1 h before the incubation with
arachidonic acid (15 μM). Cells were washed 3 times before the analysi
of incorporated ^14 Carachidonic acid. Results are representative of
independent experiments.

[2] = tested on: colorectal cancer; conditions: humans taking drug regularly vs persons not taking; cited from earlier work

CC(=O)Oc1ccccc1C(=O)O [aspirin]
inhibition of 14C-arachidonic acid uptake ([1]; arachidonic acid-stimulated cells, aspirin 10 μg/mL, sodium salicylate 10 μg/mL, indomethacin 1 μg/mL): failed to inhibit
14C-AA uptake ([1]; stimulus arachidonate 15 μM, drug 10 μg/ml): 6974 cpm
lower risk of developing colorectal cancer [2]: 40-50%

— patent US5837548A, “Treatment of inflammation by inhibition of lipid body formation” (Beth Israel Hospital, priority 1995, dated 1998)
